The results in this text go back to patent US11026896B2, “Transdermal penetrant formulations containing cannabidiol” (AMPERSAND BIOPHARMACEUTICALS, INC., priority 2019, dated 2021).

What is called Cmax is the highest concentration seen after dosing.

The data set can be described thus: Plasma pharmacokinetic profile of CBD after a single topical dose to CD-1 mice (In-life Study 1901002-01, LC-MS/MS). The class given is in vivo. The conditions noted are these: single topical dose 0.1 mL, mouse plasma. The procedure:
The objective of this study was to determine the plasma pharmacokinetic (PK) profile of test article cannabidiol (CBD) following the administration of a single topical dose to CD-1 mice. The work was conducted at Alliance Pharma with a title of In-life Study 1901002-01. Although the in-life study was not intended to be conducted in compliance with Good Laboratory Practice regulations, the study was conducted in accordance with Alliance Pharma's IACUC (Institutional Animal Care and Use Committee) Protocol No. 2016-02_V4 and Alliance Pharma's standard operating procedures (SOPs). In addition, the pharmacokinetic analyses of mouse plasma samples were conducted in accordance with Alliance Pharma SOPs.
A total of 72 mouse (CD-1) plasma samples were transferred from Alliance Pharma's in-life facility located in Malvern, Pa. to the Bioanalytical department for pharmacokinetic analysis. The concentration of CBD in these 72 plasma samples was measured using high-performance liquid chromatography (HPLC) with tandem mass spectrometry (MS/MS) detection.
In-life Study Design: In-life Study 1901002-01 was performed at the in-life testing facility at Alliance Pharma. Four (4) groups of 21 CD-1 mice each (84 total) were administered a single topical dose of CBD. Mice in Group 1 were administered Formulation A at a strength of 2.5% CBD. Mice in Group 2 were administered Formulation B at the same strength of 2.5% CBD. Mice in Group 3 were administered Formulation C at a strength of 5% CBD, and mice in Group 4 were administered Formulation C at a strength of 2.5% CBD. The treatment scheme is summarized below.
Animals in each group received topical administration of either 2.5% o 5% CBD using a 1 ml syringe to draw up exactly 100 μl. Compound was applied in the shaved area only. Each group received a different formulation of the compound.
Sample Collection, Processing, and Shipment: Blood samples were collected at the in-life facility at the following time points: 0.25, 0.5, 1, 2, 4, and 8 hours post-dose from 72 mice in Groups 1 through 4 (18 from each treatment group). Target volume was less than or equal to 0.2 ml. The blood was collected via trunk puncture into tubes using K2 EDTA as an anticoagulant. The collected blood samples were kept on wet ice before being centrifuged. Blood samples were centrifuged as soon as possible after blood collection at approximately 10,000 rpm for about 10 minutes to separate the plasma. Approximately 0.2 mL of each plasma sample was transferred into labeled Eppendorf tubes. Each tube was stored in a freezer set to −20° C. or lower. No blood was collected from 12 (3 from each treatment group) of the 84 mice enrolled in the in-life study; thus, the total number of plasma samples that were transferred to the Alliance Pharma Bioanalytical department for bioanalysis was 72.
Assay Procedures: For analysis of CBD, a 25-μL aliquot of each study sample was mixed with 25 μL of acetonitrile/water (50:50, v/v). Samples were then extracted by protein precipitation using acetonitrile containing the internal standard, tolbutamide (25 ng/mL). A portion of the supernatant was diluted in deionized water and used for the analysis of CBD.
Data Acquisition and Processing: The LC-MS/MS data acquisition was performed on a Shimadzu Nexera X2 LC system coupled with an AB SCIEX Triple Quad 5500 mass spectrometer. Chromatograms were integrated using Analyst 1.6.2 software. A weighted (1/x^2, x=concentration) linear regression was used to generate the calibration curve for CBD. The concentration of CBD was calculated using the peak area ratio of analyte to internal standard based on the standard curve. Mean, standard deviation, precision, accuracy, and assay variability were calculated using Microsoft Excel software.
Pharmacokinetic Analysis: Software—The PK parameters were determined using a non-compartmental analysis tool, namely, Phoenix WnNonlin 6.3 software (Pharsight Corporation, St. Louis, Mo.). […]

[1] abbreviates: Group 1, AEM.CBD.006 Formulation A 2.5% CBD, mean dose 78.69 mg/kg.
Setting [2] is: Group 2, AEM.CBD.007 Formulation B 2.5% CBD, mean dose 76.61 mg/kg.
Setting [3] is: Group 3, KBM.CBD.010 Formulation C 5% CBD, mean dose 155.24 mg/kg.
Where [4] appears, read: Group 4, KBM.CBD.011 Formulation C 2.5% CBD, mean dose 75.76 mg/kg.

Under setting [1], `C=C(C)[C@@H]1CCC(C)=C[C@H]1c1c(O)cc(CCCCC)cc1O` [Cannabidiol] showed an AUCinf of 1.865 µg·h/mL, an AUClast of 1.758 µg·h/mL, a Cmax of 0.427149 µg/mL and a t1/2 of 1.78 h. This molecule registered a tmax under setting [1] of 2.00 h. Besides, under setting [2], the AUCinf is 1.647 µg·h/mL, the AUClast was 1.563 µg·h/mL, the Cmax was determined as 0.360351 µg/mL and the t1/2 was 1.70 h. This molecule showed a tmax under setting [2] of 2.00 h. Further, under setting [3], the AUCinf came to 3.533 µg·h/mL, the AUClast was found to be 3.067 µg·h/mL, the Cmax is 0.602168 µg/mL and the tmax is 4.00 h. Under setting [4], this molecule registered an AUCinf of 1.514 µg·h/mL, an AUClast of 1.41 µg·h/mL, a peak concentration (Cmax) of 0.33156 µg/mL and a t1/2 of 1.92 h. For the same molecule, under setting [4], the tmax worked out at 1.00 h.
